In patent US20200102264A1, “MARMELIN ANALOGS AND METHODS OF USE IN CANCER TREATMENT” (THE UNIVERSITY OF KANSAS, priority 2014, published 2020):

Columns and labels:
SW480 colon cancer cells = test: hexoseaminidase cell proliferation assay, SW480; format: cell-based
Text: Using hexoseaminidase assay, we determined the effect of the compounds on cell proliferation. […]
Using hexoseaminidase assay, we determined the effect of the compounds on cell proliferation. […] […] […] Overall, the analogs can be used as chemotherapeutic agents against colon and pancreatic cancer.

[1] = test system: PanC-1 pancreatic cancer cells; test: hexoseaminidase cell proliferation assay, PanC-1; format: cell-based
Experimental: (§1) Using hexoseaminidase assay, we determined the effect of the compounds on cell proliferation. […] The IC50 value at 48 hours is below 10 μM in all the cancer cell lines.
Using hexoseaminidase assay, we determined the effect of the compounds on cell proliferation. […] The MRL16 IC50 value at 48 hours is below 0.3 μM in Colon cancer cell lines. […] Overall, the analogs can be used as chemotherapeutic agents against colon and pancreatic cancer.

KU7 bladder cancer cells = test: hexoseaminidase cell proliferation assay, KU7; format: cell-based
Experimental: as §1

HCT116 cells [2] = test: cell cycle analysis, HCT116; format: cell-based; conditions: HCT116, Table 3
HCT116 cells [3] = test: colony formation, HCT116; format: cell-based
[4] = test system: caspase 3, caspase 8, caspase 9, Bcl2, BclXL, cytochrome c; test: western blot analysis, apoptosis proteins; format: cell-based; conditions: HCT116 and SW480 cells, 48 h
Experimental: The pathways for apoptosis were studied to determine whether the analogs were capable of inhibiting certain aspects of the pathways. […] HCT116 and SW480 cells treated with MRL, THB, THBCD, DHB, DHBCD and CD for 48 h and performed for western blot analysis. […] It is shown that THBCD also activates caspase 8 and caspase 9. Furthermore, THB and THBCD inhibit anti-apoptotic protein Bcl2 and BclXL levels. […] HCT116 and SW480 cells treated with MRL, THB, THBCD, DHB, DHBCD and CD for 48 h and performed for western blot analysis. Furthermore, THB and THBCD inhibit phosphorylation of Akt (FIG. 3).

DCLK1, LGR5 and CD44 = test: stem cell marker protein expression; format: cell-based; conditions: HCT116 and SW480 cells
Experimental: The analogs were also tested with doublecortin and CaM kinase-like-1 (DCLK1), a microtubule-associated kinase expressed in postmitotic neurons and is an intestinal stem cell marker that is expressed in colon adenocarcinoma. DCLK1 distinguishes between tumor and normal stem cells in the intestine and could be a therapeutic target for colon cancer.

Notch-1, Jagged-1, Hes-1 = test: Notch signaling-related proteins; format: cell-based; conditions: two colon cancer cells
Text: Notch signaling also plays a fundamental role in the differentiation and maintenance of stem cells. […] We next determined the effect of THB or THBCD on Notch signaling-related proteins in the two colon cancer cells.

DCLK1 = biological target: T1, DCLK1 (Homo sapiens, UniProt O15075); test: in vitro kinase assay using recombinant DCLK1; format: biochemical; conditions: recombinant DCLK1, dose dependent
T1 construct: we performed an in vitro kinase assay using recombinant DCLK1
Text: DCLK1 encodes a calmodulin-like kinase domain, and has homology to calmodulin kinases CAMKII and CAMKIV. We performed homology modeling and determined that THB can interact with the kinase domain with binding energy of −5.94. Furthermore we performed an in vitro kinase assay using recombinant DCLK1. […] Furthermore, THB and THBCD inhibit cancer stem cell marker DCLK1 expression in the xenograft tumors in both immunohistochemistry and western blot analysis (data not shown).

T1 sequence (O15075 whole entry): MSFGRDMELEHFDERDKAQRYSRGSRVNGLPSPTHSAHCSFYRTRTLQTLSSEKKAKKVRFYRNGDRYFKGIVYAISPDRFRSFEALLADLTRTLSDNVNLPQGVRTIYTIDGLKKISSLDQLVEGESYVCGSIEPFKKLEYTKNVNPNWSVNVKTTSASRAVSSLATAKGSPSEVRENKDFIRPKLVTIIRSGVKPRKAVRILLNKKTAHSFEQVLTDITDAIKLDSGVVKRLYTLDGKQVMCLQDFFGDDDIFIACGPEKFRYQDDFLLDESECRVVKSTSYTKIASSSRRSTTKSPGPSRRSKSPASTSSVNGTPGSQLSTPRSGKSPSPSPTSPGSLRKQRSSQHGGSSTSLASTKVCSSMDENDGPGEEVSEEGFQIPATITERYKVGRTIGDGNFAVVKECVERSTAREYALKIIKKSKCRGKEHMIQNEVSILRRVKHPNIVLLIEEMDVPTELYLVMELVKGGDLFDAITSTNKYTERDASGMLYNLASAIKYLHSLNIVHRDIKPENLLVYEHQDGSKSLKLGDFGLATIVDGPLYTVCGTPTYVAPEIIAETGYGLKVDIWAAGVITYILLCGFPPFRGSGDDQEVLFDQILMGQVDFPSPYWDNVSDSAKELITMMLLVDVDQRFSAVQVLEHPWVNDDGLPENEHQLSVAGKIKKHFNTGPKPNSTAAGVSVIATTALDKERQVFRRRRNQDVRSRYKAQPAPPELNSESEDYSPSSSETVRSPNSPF

- IC50 (SW480 colon cancer cells; SW480, 24 h): > 50 µM
- IC50 (SW480 colon cancer cells; SW480, 48 h): 10 µM
- IC50 (SW480 colon cancer cells; SW480, 72 h): 10 µM
- IC50 (SW480 colon cancer cells; SW480, 72 h, listed as THB): 9 µM
- IC50 ([1]; PanC-1, 24 h): > 50 µM
- IC50 ([1]; PanC-1, 48 h): 10 µM
- IC50 ([1]; PanC-1, 72 h): 8 µM
- IC50 (KU7 bladder cancer cells; KU7, 24 h): 22 µM
- IC50 (KU7 bladder cancer cells; KU7, 48 h): 8 µM
- IC50 (KU7 bladder cancer cells; KU7, 72 h): 6 µM
- DCLK1 kinase activity (DCLK1): significantly reduced
SMILES: O=C(N/N=C/c1ccc(O)c(O)c1O)c1cc2ccccc2cc1O [MRL THB]
- G0/G1 (%) (HCT116 cells [2]): 17.2%
- G2M (%) (HCT116 cells [2]): 19.7%
- S (%) (HCT116 cells [2]): 28.1%
- SubG0 Dead Cells (%) (HCT116 cells [2]): 29.0%
- colony formation (HCT116 cells [3]): significantly inhibited colony formation
- anti-apoptotic protein Bcl2 and BclXL levels [4]: inhibit
- cytochrome c [4]: inhibit
- DCLK1, LGR5 and CD44 expression (DCLK1, LGR5 and CD44): significantly inhibited
- Hes-1 expression (Notch-1, Jagged-1, Hes-1): reduced expression
- Notch-1 and Jagged-1 (Notch-1, Jagged-1, Hes-1): downregulated
